{"source": "patent US20060148732A1", "about": "“Inhibition of NF-kappaB by triterpene compositions” (priority 2000, published 2006)", "key": {"SKH-1 hairless mice": {"test_system": "SKH-1 hairless mice", "experiment": "UVB-induced skin lesions", "type": "in vivo, mouse", "conditions": "UVB-irradiated SKH-1 mice; topical, 15 min before UVB", "protocol": "In the study, SKH-1 hairless mice are irradiated with UVB radiation at the dose of 1.8 kJ/m^2 for up to 15 min. Mice are pretreated with two different doses of F035 of (2 mg and 4 mg per dose) as well as negative controls (F060 or acetone alone). It is believed a minimum of 10 mice per group are needed to obtain statistically meaningful results. […] The studies are conducted for a short period of time to evaluate the preventive effect of the compounds. It is not expected to see visible tumors, even with UVB alone, only skin lesions within the specified time-frame. A slight erythema (minor redness of the skin) may be observed, which should disappear the next day after irradiation.\nThe UV apparatus used has eight Westinghouse FS40 sunlamps, an IL-1400A radiometer/photometer, and an attached IL-1403 UVB phototherapy radiometer with a SEL 240/UVB-1/TD detector. The middle part has several chambers, each holding an individual mouse. There are holes inside the chambers for proper ventilation while mice are being irradiated. The chambers rotate in circular motion during irradiation so each mouse is exposed to UVB light uniformly. […] The amount of the UVB exposure will be measured with a UVB radiometer. […]\nMethods. […] The relative efficacy of the treatment was evaluated utilizing endpoints of epidermal thickness, leukocyte invasion, labeling (with BrdU) index, p53 mutations and 8-OH-dG formation. […]"}, "PARP in Jurkat cells": {"test_system": "PARP in Jurkat cells", "experiment": "Immunoblot analysis of PARP degradation", "type": "cell-based, human", "protocol": "Apoptosis induced by F035 & D1 was examined by proteolytic cleavage of poly (ADP-ribose) polymerase (PARP). Jurkat cells (2×10^6/ml) were treated with F035 (2 μg/ml) and D1 (2 μg/ml) for different lengths of time. Cell lysates were prepared in buffer containing 20 mM HEPES, 250 mM NaCl, 2 mM EDTA, 0.1% NP-40, 2 μg/ml leupeptin, 2 μg/ml aprotinin, 0.5 μg/ml benzamidine, 1 mM DTT and 1 mM PMSF. Cellular proteins (60 μg/ml) were separated on a 7.5% SDS polyacrylamide gel and electrotransferred onto a nitrocellulose membrane. The membrane was probed first with monclonal anti-PARP antibody (PharMingen) and then with anti-mouse antibody conjugated to horse radish peroxidase (HRPO). Protein bands were detected by chemiluminescense (ECL, Amersham). The extent of cleavage of the 116-kDa PARP into 85-kDa and 41-kDa peptide products was used as a measure of apoptosis (Tewari et al., 1995).\nImmunoblot Analysis of PARP Degradation. Induction of apoptosis was also examined by proteolytic cleavage of PARP (Nicholson and Thornberry, 1997). Jurkat cells (3×10^6) were treated with 2 μg/ml of F094, avicin D, or avicin G at 37° C. Cell lysates were prepared in a buffer containing 20 mM HEPES, 250 mM NaCl, 2 mM EDTA, 0.1% NP-40, 2 μg/ml leupeptin, 2 μg/ml aprotinin, 0.5 μg/ml benzamidine, 1 mM DTT, and 1 mM PMSF. Cellular proteins (60 μg/ml) were separated on a 7.5% SDS polyacrylamide gel and electrotransferred onto a nitrocellulose membrane. The membrane was probed first with monoclonal anti-PARP antibody (Pharmingen) and then with anti-mouse antibody conjugated to horseradish peroxidase (HRPO). Protein bands were detected by chemiluminescence (ECL). The appearance of an 85 kDa cleavage product was used as a measure of apoptosis."}, "[1]": {"test_system": "mitochondrial fraction of Jurkat cells", "experiment": "Cytochrome c release in a cell free system", "type": "biochemical, human", "conditions": "isolated mitochondria; 25 μM pretreatment", "protocol": "Isolation of the Submitochondrial Fraction. Jurkat cells (1.5-2.0×10^7) were suspended in 1 ml sucrose buffer (250 mM sucrose in 30 mM Tris-HCl pH 7.4) and transferred into an N2 cavitation chamber (PARR Instruments Company, Moline, Ill.). The cells were subjected to N2 cavitation (300 psi for 5 min) as per the manufacturer's instructions. Under these conditions most of the cell membrane was disrupted with no change in the mitochondrial respiratory activity. Next, DNA and the nuclear fraction were removed by centrifugation (1500 g, 30 sec). The supernatant was further centrifuged (16000 g, 10 min) and the pellet was used as the submitochondrial fraction.\nTo observe if monoterpene/triterpenoid saponins directly affected mitochondria to induce apoptosis, experiments were carried out using avicin G in a cell free system. Mitochondria were isolated from Jurkat cells by the N2 cavitation method."}}, "data": [{"substance": "Vitamin E", "values": [{"measurement": "decrease in number of cycling cells (BrdU labeling)", "setting": "SKH-1 hairless mice", "result": 30, "unit": "%"}]}, {"substance": "z-Val-Ala-Asp-CH2F [z-vad fmk, reference compound]", "values": [{"measurement": "effect on cleavage of PARP induced by F094 or avicins", "setting": "PARP in Jurkat cells; 100 μM pretreatment 1 hour", "result": "totally blocked the cleavage of PARP"}, {"measurement": "effect on F035 induced cleavage of PARP", "setting": "PARP in Jurkat cells; 100 μM pretreatment for 1 h", "result": "completely reversed"}, {"measurement": "effect on avicin G induced cytochrome c release", "setting": "[1]", "result": "did not affect the release of cytochrome c"}]}]}
